Test results published in patent publication US20260272801A1, “BIOCATALYTIC SYNTHESIS OF UNNATURAL MYCOSPORINE-LIKE AMINO ACIDS” (University of Florida Research Foundation, Incorporated, priority 2022, published 2026).
Entries after “also recorded” stand apart in the source; their conditions may differ.

Key:
MysD = assay: In vitro MysD reaction with amino acid substrates (LC-HRMS detection of MAA products); type: biochemical, Nostoc linckia NIES-25; details: 5 mM amino acid, 50 uM mycosporine-glycine, 5 mM ATP, 0.5 uM MysD, pH 8.0, room temperature, 4 hours
Protocol: The reaction solution contained 50 mM HEPES, pH 8.0, 10 mM MgCl2, 50 uM mycosporine-glycine (MG), 5 mM amino acid substrates, and 5 mM ATP. The reactions were initiated by adding 0.5 uM MysD and then carried out at room temperature for 4 hours. The reactions were then terminated and centrifuged.
In Vitro MysD Reactions. MG was purified from extracts of E. coli expressing MysAB2C by HPLC and used as the substrate for the MysD reactions. The quality of MG was calculated based on its extinction coefficient (28,100 M^−1cm^−1). The MysD reactions included MG (50 μM), Mg^2+ (10 mM), unnatural amino acid substrates (5 mM), and ATP (5 mM) in 50 mM HEPES, pH 8.0. The reactions were initiated by adding MysD (0.5 μM) and then incubated at room temperature for 4 hours. All reactions were quenched by heat inactivation at 95° C. for 10 min. After centrifugation at 20,000×g for 15 min, the clear supernatants were collected for LC-HRMS analysis.
The reactions were terminated and then analyzed in the HPLC and/or LC-MS analysis.
HPLC and LC-MS Analysis. Samples were analyzed on a Shimadzu Prominence UHPLC system (Kyoto, Japan) coupled with a PDA detector. Unless stated elsewhere, the following HPLC procedure was performed. The compounds were separated on a Phenomenex Luna C8 column (4.6×250 mm, 5 μm) using the following HPLC program: 2% B for 15 min, 2-90% B gradient in 2 min, 90% B in 2 min, 90-2% in 2 min, and re-equilibration in 2% B for 6 min. The A phase was water with 0.1% formic acid and the B phase was methanol. The flow rate was set at 0.5 mL/min. LC-HRMS and HRMS/MS experiments were conducted on a Thermo Scientific Q Exactive Focus mass spectrometer with a Dionex Ultimate RSLC 3000 uHPLC system, equipped with the H-ESI II probe on an Ion Max API Source. Methanol (B)/water (A) containing 0.1% formic acid were used as mobile phases. The eluents from the first 3 min were diverted to waste by a diverting valve. MS1 signals were acquired under the Full MS positive ion mode, covering a mass range of m/z 150-2000, with resolution at 35 000 and AGC target at 1×10^6.

[1] = cited from earlier work

SMILES | use as amino acid substrate by MysD to produce MAA products (MysD) | also measured
NC[C@@H](N)C(=O)O [(R)-2,3-diaminopropionic acid] | not able to take | –
NC[C@H](N)C(=O)O [(S)-2,3-diaminopropionic acid] | could be used by MysD | –
C=C[C@H](N)C(=O)O [(S)-2-aminobut-3-enoic acid] | could be used by MysD | –
C[C@@H](O)[C@H](N)C(=O)O [L-threonine] | could be used by MysD; also recorded: best substrate | –
COC1=C(NCC(=O)O)C[C@@](O)(CO)CC1=O [MG, mycosporine-glycine] | – | extinction coefficient ([1]; used to calculate the quantity of MG): 28,100 M^−1cm^−1
COC1=C(NCC(=O)O)C[C@@](O)(CO)CC1=N[C@H](C(=O)O)[C@@H](C)O [porphyra-334] | – | maximal absorption wavelength ([1]; natural MAA given as comparison value): 334 nm
